Measured values reported in patent publication US8778896B2, “Levoisovalerylspiramycin I, II or III, preparations, preparation methods and uses thereof” (Shenyang Tonglian Group Co., Ltd., priority 2010, dated 2014).

Experiments:
[1] = in vivo; cited from earlier work
[2] = test system: streptococcus pneumoniae18; experiment: Curative effect on mouse with abdominal infection (ED50); format: in vivo, streptococcus pneumoniae; details: streptococcus pneumoniae18, challenging dose 9.6 × 10^4 CFU/0.5 ml, deaths in 7 days, Bliss
Description: (§1) Test method: preparation of infection bacterial liquid: taking out the test bacterial liquid which is kept in a refrigerator at −80[…] to room temperature for about 1 h, then inoculating streptococcus pneumonia, pyogenic streptococcus and enterococcus absorbing 0.1 ml bacterial liquid respectively to 2 ml MH broth (add 10% inactivated horse serum), and inoculating 0.1 ml bacterial liquid of staphylococcus aureus to 2 ml MH broth according to the same method above; putting it in an incubator at 37[…] to be cultivated for 18 h, to obtain original bacterial liquid; diluting the original bacterial liquid with 5% gastric mucin to make animals infected with 100% lethal bacteria, to obtain infection bacterial liquid.
(§2) The clinical route of administration of carrimycin is proposed to be oral administration, thus intragastric administration is adopted in carrimychin test. Levoisovalerylspiramycin I (obtained in Embodiment 1) and of crystalline compound of levoisovalerylspiramycin I (prepared in Embodiment 27) are fed to animals via […].
(§3) After the mice are infected, respectively feed each mouse 0.2 ml via intragastric administration at 0.5 to 6 h, and they have no adverse reaction. Observe the number of deaths in 7 days, and calculate the 50% effective dose (ED50) of each drug for the infected mouse and compare the protective effect of drugs by Bliss program.

[3] = test system: streptococcus pneumoniae3; experiment: as above; format: in vivo, streptococcus pneumoniae; details: streptococcus pneumoniae3, challenging dose 6.4 × 10^4 CFU/0.5 ml, deaths in 7 days, Bliss
Description: as §1, §2, §3

[4] = test system: streptococcus pneumoniae57; experiment: as above; format: in vivo, streptococcus pneumoniae; details: streptococcus pneumoniae57, challenging dose 8.8 × 10^4 CFU/0.5 ml, deaths in 7 days, Bliss
Description: as §1, §2, §3

[5] = test system: pyogenic streptococcus 102; experiment: as above; format: in vivo; details: pyogenic streptococcus 102, challenging dose 7.8 × 10^4 CFU/0.5 ml, deaths in 7 days, Bliss
Description: as §1, §2, §3

[6] = test system: pyogenic streptococcus 119; experiment: as above; format: in vivo; details: pyogenic streptococcus 119, challenging dose 4.9 × 10^4 CFU/0.5 ml, deaths in 7 days, Bliss
Description: as §1, §2, §3

[7] = test system: pyogenic streptococcus 772; experiment: as above; format: in vivo; details: pyogenic streptococcus 772, challenging dose 6.9 × 10^3 CFU/0.5 ml, deaths in 7 days, Bliss
Description: as §1, §2, §3

enterococcus32 [8] = experiment: as above; format: in vivo, enterococcus; details: enterococcus32, challenging dose 5.4 × 10^4 CFU/0.5 ml, deaths in 7 days, Bliss
Description: as §1, §2, §3

staphylococcus aureus12 [9] = experiment: as above; format: in vivo, staphylococcus aureus; details: staphylococcus aureus12, challenging dose 4.8 × 10^4 CFU/0.5 ml, deaths in 7 days, Bliss
Description: as §1, §2, §3

staphylococcus aureus16 [10] = experiment: as above; format: in vivo, staphylococcus aureus; details: staphylococcus aureus16, challenging dose 5.2 × 10^3 CFU/0.5 ml, deaths in 7 days, Bliss
Description: as §1, §2, §3

staphylococcus aureus21 [11] = experiment: as above; format: in vivo, staphylococcus aureus; details: staphylococcus aureus21, challenging dose 4.2 × 10^4 CFU/0.5 ml, deaths in 7 days, Bliss
Description: as §1, §2, §3

staphylococcus aureus76 [12] = experiment: as above; format: in vivo, staphylococcus aureus; details: staphylococcus aureus76, challenging dose 5.8 × 10^4 CFU/0.5 ml, deaths in 7 days, Bliss
Description: as §1, §2, §3

12 strains of bacteria = experiment: Protective effect on mouse infected with 12 strains of bacteria; format: in vivo; details: in words
Description: as §1, §2, §3

[13] = test system: streptococcus pneumoniae3; experiment: MIC against the infecting test organism; format: cell-based, streptococcus pneumoniae
[14] = test system: streptococcus pneumoniae18; experiment: MIC against the infecting test organism; format: cell-based, streptococcus pneumoniae
[15] = test system: streptococcus pneumoniae57; experiment: MIC against the infecting test organism; format: cell-based, streptococcus pneumoniae
[16] = test system: pyogenic streptococcus 772; experiment: MIC against the infecting test organism; format: cell-based
[17] = test system: pyogenic streptococcus 102; experiment: MIC against the infecting test organism; format: cell-based
[18] = test system: pyogenic streptococcus 119; experiment: MIC against the infecting test organism; format: cell-based
enterococcus32 [19] = experiment: MIC against the infecting test organism; format: cell-based, enterococcus
staphylococcus aureus16 [20] = experiment: MIC against the infecting test organism; format: cell-based, staphylococcus aureus
staphylococcus aureus76 [21] = experiment: MIC against the infecting test organism; format: cell-based, staphylococcus aureus
staphylococcus aureus12 [22] = experiment: MIC against the infecting test organism; format: cell-based, staphylococcus aureus
staphylococcus aureus21 [23] = experiment: MIC against the infecting test organism; format: cell-based, staphylococcus aureus
[24] = test system: streptococcus pneumoniae (112); experiment: Clinical isolates, agar double dilution method; format: cell-based
[25] = test system: pyogenic streptococcus (93); experiment: Clinical isolates, agar double dilution method; format: cell-based
enterococcus (106) = experiment: Clinical isolates, agar double dilution method; format: cell-based
[26] = test system: staphylococcus aureus (155); experiment: Clinical isolates, agar double dilution method; format: cell-based
S. epidermidis (115) = experiment: Clinical isolates, agar double dilution method; format: cell-based
[27] = test system: hemophilus influenzae (37); experiment: Clinical isolates, agar double dilution method; format: cell-based
gonococcus (10) = experiment: Clinical isolates, agar double dilution method; format: cell-based
[28] = test system: Chlamydia Trachomatis B/TW-5/OT; experiment: Chlamydia in vitro MIC, McCoy cells, immunofluorescence; format: cell-based; details: 48 hours
[29] = test system: Chlamydia Trachomatis D/UW-3/Cx; experiment: as above; format: cell-based; details: 48 hours
[30] = test system: Chlamydia Pneumoniae CWL-029; experiment: Chlamydia in vitro MIC, HEp-2 cells, immunofluorescence; format: cell-based; details: Chlamydia Pneumoniae CWL-029, HEp-2 cells, 72 hours
[31] = test system: Mycoplasma Urealyticum and Mycoplasma Pneumoniae strains; experiment: Mycoplasma in vitro MIC (U-PPLO broth); format: cell-based; details: determined 4 times, final MIC (24 h)
Description: 1. Test methods: adding U-PPLO 0.8 ml to each pore of aseptic 12-pore cell culture plate (adding 0.9 ml to inoculum control pore and 1.0 ml to medium control pore).
2. Add 10^4CCU/ml Uu inoculum 0.1 ml to each experimental pore. The final dose in the pore is 10^3CCU/ml (the medium control pore will not be added with inoculum).
3. Divide into 3 groups (100 μg/ml, 10 μg/ml and 1 μg/ml antibiotic stock solution), Use aseptic Tip to add antibiotic for test to each pore: 100 μl, 50 μl, 25 μl, 12.5 μl according to the double degradation concentration gradient. (The inoculum and medium control pores will not be added with the antibiotic, and meanwhile the antibiotic control pore is arranged.)
4. Blend all pores evenly. Seal the culture plate by tapes and place it in a 37[…] box for culture.
5. On 17-24 hours after the test, observe and record the Uu growth situation. When Uu inoculum control pore presents a positive growth, the minimal antibiotic concentration, which can suppress the growth of Uu, is the MIC of sample.

In the case of spiramycin, the “absolute bioavailability by oral administration” value [1] is listed as 30˜40%.
In the case of `CCC(=O)OC1CC(=O)OC(C)C/C=C/C=C/C(OC2CCC(N(C)C)C(C)O2)C(C)CC(CC=O)C(OC2OC(C)C(OC3CC(C)(O)C(OC(=O)CC(C)C)C(C)O3)C(N(C)C)C2O)C1OC` (stereo not drawn) [crystal of isovalerylspiramycin III, levoisovalerylspiramycin III], the ED50 [2] is reported as 8.68 mg/kg, the ED50 [3] is reported as 6.45 mg/kg and the ED50 [4] is reported as 11.08 mg/kg. It also gave an ED50 [5] of 52.91 mg/kg, an ED50 ([6]; listed as crystal of isovaletylspiramycin III) of 49.94 mg/kg and an ED50 [7] of 22.81 mg/kg. For the same compound, the ED50 (enterococcus32 [8]) was 65.89 mg/kg, the ED50 (staphylococcus aureus12 [9]) was 105.24 mg/kg and the ED50 (staphylococcus aureus16 [10]) was 19.29 mg/kg. The ED50 (staphylococcus aureus21 [11]) was 36.09 mg/kg, the ED50 (staphylococcus aureus76 [12]) was 18.71 mg/kg and the “protective effect (curative effect) on infected mouse” value (from here on “protective effect (curative effect)”) (12 strains of bacteria) was “good protective effect”.
For `COC1C(OC(C)=O)CC(=O)OC(C)C/C=C/C=C/C(OC2CCC(N(C)C)C(C)O2)C(C)CC(CC=O)C1OC1OC(C)C(OC2CC(C)(O)C(OC(=O)CC(C)C)C(C)O2)C(N(C)C)C1O` (stereo not drawn) [crystal of isovalerylspiramycin II, levoisovalerylspiramycin II], the ED50 [2] was 8.09 mg/kg, the ED50 [3] was 7.69 mg/kg and the ED50 [4] was 12.04 mg/kg. The ED50 [5] was 58.00 mg/kg, the ED50 [6] was 49.94 mg/kg and the ED50 [7] was 21.90 mg/kg. The ED50 (enterococcus32 [8]) was 56.16 mg/kg, the ED50 (staphylococcus aureus12 [9]) was 104.67 mg/kg and the ED50 (staphylococcus aureus16 [10]) was 16.18 mg/kg. For the same compound, the ED50 (staphylococcus aureus21 [11]; listed as crystal of isovalcrylspiramycin II) was 36.09 mg/kg, the ED50 (staphylococcus aureus76 [12]) was 18.71 mg/kg and the “protective effect (curative effect)” value (12 strains of bacteria) was “good protective effect”.
For `COC1C(O)CC(=O)OC(C)C/C=C/C=C/C(OC2CCC(N(C)C)C(C)O2)C(C)CC(CC=O)C1OC1OC(C)C(OC2CC(C)(O)C(OC(=O)CC(C)C)C(C)O2)C(N(C)C)C1O` (stereo not drawn) [crystal of isovalerylspiramycin I, levoisovalerylspiramycin I], the ED50 [2] was 8.65 mg/kg, the ED50 [3] was 8.39 mg/kg and the ED50 [4] was 12.82 mg/kg. For the same compound, the ED50 [5] was 60.99 mg/kg, the ED50 [6] was 54.58 mg/kg and the ED50 [7] was 23.37 mg/kg. It also gave an ED50 (enterococcus32 [8]) of 62.11 mg/kg, an ED50 (staphylococcus aureus12 [9]) of 107.46 mg/kg and an ED50 (staphylococcus aureus16 [10]) of 21.33 mg/kg. For the same compound, the ED50 (staphylococcus aureus21 [11]) was 38.00 mg/kg, the ED50 (staphylococcus aureus76 [12]) was 22.26 mg/kg and the “protective effect (curative effect)” value (12 strains of bacteria; listed as crystalline compound of isovalerylspiramycin I) was “better protective effect”.
In the case of acetyl spiramycin [reference compound], the ED50 [2] is reported as 37.93 mg/kg, the ED50 [3] is reported as 66.96 mg/kg and the ED50 [4] is reported as 398.01 mg/kg. It also gave an ED50 [5] of 227.07 mg/kg, an ED50 [6] of 117.53 mg/kg and an ED50 [7] of 98.11 mg/kg. The ED50 (enterococcus32 [8]) was 130.34 mg/kg, the ED50 (staphylococcus aureus12 [9]) was greater than 500 mg/kg and the ED50 (staphylococcus aureus16 [10]) was 43.58 mg/kg. It also gave an ED50 (staphylococcus aureus21 [11]) greater than 500 mg/kg, an ED50 (staphylococcus aureus76 [12]) of 66.63 mg/kg and an MIC [13] of 0.5 µg/mL. The MIC [14] was 0.06 µg/mL, the MIC [15] was 1 µg/mL and the MIC [16] was 0.25 µg/mL. It also gave an MIC [17] of 0.5 µg/mL, an MIC [18] of 0.5 µg/mL and an MIC (enterococcus32 [19]) of 1 µg/mL. For the same compound, the MIC (staphylococcus aureus16 [20]) was 1 µg/mL, the MIC (staphylococcus aureus76 [21]) was 1 µg/mL and the MIC (staphylococcus aureus12 [22]) was 2048 µg/mL. For the same compound, the MIC (staphylococcus aureus21 [23]) was 2048 µg/mL, the MIC50 [24] was 0.12 µg/mL and the MIC90 [24] was greater than 64 µg/mL. It also gave an MIC50 [25] of 0.25 µg/mL, an MIC90 [25] greater than 64 µg/mL and an MIC50 (enterococcus (106)) of 4 µg/mL. It also gave an MIC90 (enterococcus (106)) greater than 64 µg/mL, an MIC50 [26] of 64 µg/mL and an MIC90 [26] greater than 64 µg/mL. For the same compound, the MIC50 (S. epidermidis (115)) was 64 µg/mL, the MIC90 (S. epidermidis (115)) was greater than 64 µg/mL and the MIC50 [27] was 0.12 µg/mL. It also gave an MIC90 [27] of 4 µg/mL, an MIC50 (gonococcus (10)) of 4 µg/mL and an MIC90 (gonococcus (10)) of 8 µg/mL. It also gave an MIC range (gonococcus (10)) of 0.12 to 64 µg/mL, an MIC [28] of 4 µg/mL and an MIC [29] of 2 µg/mL. It also gave an MIC [30] of 0.5 µg/mL and an MIC [31] of 0.5 µg/mL.
